# Experimental data taken from ChEMBL document CHEMBL3044672, “N9- and N7-(Chloromethyl Phenymethyl)Chloropurine Derivatives from , '-Dichloroxylenes: Synthesis and Anticancer Activity” (2005).
# Experiments:
# Assay type in all cases: functional
# OVCAR-8 = experiment: Cytotoxicity against Homo sapiens (human) OVCAR8 cells after 48 hr by sulforhodamine B assay; conditions: OVCAR-8, 48 h
# OVCAR-5 = experiment: Cytotoxicity against Homo sapiens (human) OVCAR5 cells after 48 hr by sulforhodamine B assay; conditions: OVCAR-5, 48 h
# UACC-257 = experiment: Cytotoxicity against Homo sapiens (human) UACC257 cells after 48 hr by sulforhodamine B assay; conditions: UACC-257, 48 h
# SK-MEL-28 = experiment: Cytotoxicity against Homo sapiens (human) SK-MEL-28 cells after 48 hr by sulforhodamine B assay; conditions: SK-MEL-28, 48 h
# M14 = experiment: Cytotoxicity against Homo sapiens (human) M14 cells after 48 hr by sulforhodamine B assay; conditions: M14, 48 h
# U-251 = experiment: Cytotoxicity against Homo sapiens (human) U251 cells after 48 hr by sulforhodamine B assay; conditions: U-251, 48 h
# SNB-75 = experiment: Cytotoxicity against Homo sapiens (human) SNB75 cells after 48 hr by sulforhodamine B assay; conditions: SNB-75, 48 h
# SNB-19 = experiment: Cytotoxicity against Homo sapiens (human) SNB19 cells after 48 hr by sulforhodamine B assay; conditions: SNB-19, 48 h
# MDA-MB-435 = experiment: Cytotoxicity against Homo sapiens (human) MDA-MB-435 cells after 48 hr by sulforhodamine B assay; conditions: MDA-MB-435, 48 h
# BT-549 = experiment: Cytotoxicity against Homo sapiens (human) BT549 cells after 48 hr by sulforhodamine B assay; conditions: BT-549, 48 h
# Hs-578T = experiment: Cytotoxicity against Homo sapiens (human) Hs 578T cells after 48 hr by sulforhodamine B assay
# [1] = Cytotoxicity against Homo sapiens (human) NCI-ADR-RES cells after 48 hr by sulforhodamine B assay
# MCF7 [2] = experiment: Cytotoxicity against Homo sapiens (human) MCF7 cells after 48 hr by sulforhodamine B assay; conditions: MCF7, 48 h
# SN12C = experiment: Cytotoxicity against Homo sapiens (human) SN12C cells after 48 hr by sulforhodamine B assay
# TK-10 = experiment: Cytotoxicity against Homo sapiens (human) TK10 cells after 48 hr by sulforhodamine B assay; conditions: TK-10, 48 h
# CAKI-1 = experiment: Cytotoxicity against Homo sapiens (human) Caki1 cells after 48 hr by sulforhodamine B assay; conditions: CAKI-1, 48 h
# SF-268 = experiment: Cytotoxicity against Homo sapiens (human) SF268 cells after 48 hr by sulforhodamine B assay; conditions: SF-268, 48 h
# HT-29 = experiment: Cytotoxicity against Homo sapiens (human) HT-29 cells after 48 hr by sulforhodamine B assay; conditions: HT-29, 48 h
# COLO 205 = experiment: Cytotoxicity against Homo sapiens (human) COLO205 cells after 48 hr by sulforhodamine B assay; conditions: COLO 205, 48 h
# NCI-H522 = experiment: Cytotoxicity against Homo sapiens (human) NCI-H522 cells after 48 hr by sulforhodamine B assay; conditions: NCI-H522, 48 h
# NCI-H460 [3] = experiment: Cytotoxicity against Homo sapiens (human) NCI-H460 cells after 48 hr by sulforhodamine B assay; conditions: NCI-H460, 48 h
# NCI-H23 = experiment: Cytotoxicity against Homo sapiens (human) NCI-H23 cells after 48 hr by sulforhodamine B assay; conditions: NCI-H23, 48 h
# NCI-H226 = experiment: Cytotoxicity against Homo sapiens (human) NCI-H226 cells after 48 hr by sulforhodamine B assay; conditions: NCI-H226, 48 h
# HOP-92 = experiment: Cytotoxicity against Homo sapiens (human) HOP92 cells after 48 hr by sulforhodamine B assay; conditions: HOP-92, 48 h
# K562 = experiment: Cytotoxicity against Homo sapiens (human) K562 cells after 48 hr by sulforhodamine B assay; conditions: K562, 48 h
# MCF7 [4] = experiment: Cytotoxicity against Homo sapiens (human) MCF7 cells assessed as cell growth at 10^-4 M after 48 hr by Alamar blue assay; conditions: MCF7, 48 h, read-out: Activity
# NCI-H460 [5] = experiment: Cytotoxicity against Homo sapiens (human) NCI-H460 cells assessed as cell growth at 10^-4 M after 48 hr by Alamar blue assay; conditions: NCI-H460, 48 h, read-out: Activity
# [6] = read-out: LC50 (the source's name)
smiles,measurement,setting,value
Nc1nc(Cl)c2ncn(Cc3ccccc3CCl)c2n1,LC50 (concentration killing 50% of cells),OVCAR-8,> 100 µM
same,TGI,OVCAR-8,19.5 µM
same,TGI,OVCAR-5,39.8 µM
same,CC50,OVCAR-5; [6],79.4 µM
same,LC50 (concentration killing 50% of cells),UACC-257,> 100 µM
same,TGI,UACC-257,38 µM
same,LC50 (concentration killing 50% of cells),SK-MEL-28,74.1 µM
same,TGI,SK-MEL-28,20.9 µM
same,LC50,M14,> 100 µM
same,TGI,M14,39.8 µM
same,LC50 (concentration killing 50% of cells),U-251,72.4 µM
same,TGI,U-251,13.5 µM
same,TGI,SNB-75,23.5 µM
same,CC50,SNB-75; [6],64.6 µM
same,LC50,SNB-19,> 100 µM
same,TGI,SNB-19,27.5 µM
same,LC50,MDA-MB-435,> 100 µM
same,TGI,MDA-MB-435,26.9 µM
same,LC50 (50% lethal concentration),BT-549,57.5 µM
same,TGI,BT-549,22.9 µM
same,LC50,Hs-578T,> 100 µM
same,TGI,Hs-578T,77.6 µM
same,LC50 (concentration killing 50% of cells),[1],> 100 µM
same,TGI,[1],34.7 µM
same,LC50 (concentration killing 50% of cells),MCF7 [2],87.1 µM
same,TGI,MCF7 [2],24.6 µM
same,LC50 (50% lethal concentration),SN12C,19.5 µM
same,TGI,SN12C,5.62 µM
same,TGI,TK-10,36.3 µM
same,CC50,TK-10; [6],75.9 µM
same,TGI,CAKI-1,20.4 µM
same,CC50,CAKI-1; [6],50.1 µM
same,TGI,SF-268,14.5 µM
same,CC50,SF-268; [6],97.2 µM
same,TGI,HT-29,19.1 µM
same,CC50,HT-29; [6],> 100 µM
same,TGI,COLO 205,> 100 µM
same,CC50,COLO 205; [6],> 100 µM
same,TGI,NCI-H522,9.33 µM
same,CC50,NCI-H522; [6],> 100 µM
same,TGI,NCI-H460 [3],37.1 µM
same,CC50,NCI-H460 [3]; [6],> 100 µM
same,TGI,NCI-H23,8.91 µM
same,CC50,NCI-H23; [6],78.9 µM
same,TGI,NCI-H226,10 µM
same,CC50,NCI-H226; [6],53.7 µM
same,TGI,HOP-92,30.9 µM
same,CC50,HOP-92; [6],> 100 µM
same,TGI,K562,> 100 µM
same,CC50,K562; [6],> 100 µM
same,growth at 100 µM,MCF7 [4],0%
same,growth at 100 µM,NCI-H460 [5],0%
